Reference: ChEMBL document CHEMBL5032516, “Synthesis and structural characterization of a monocarboxylic inhibitor for GRB2 SH2 domain” (Bioorg Med Chem Lett, 2021)
pIC50, pKi: −log10 of the molar value.

Experiments:
[1] = target: T1, Growth factor receptor-bound protein 2 (Homo sapiens, UniProt P62993); assay: Displacement of FITC-Ahx-PVPePYINQSVPKRK-NH2 from N-terminal His6-tagged human full length GRB2 (1 to 217 residues) expressed in Escherichia coli by fluorescence anisotropy assay
[2] = Permeability of compound assessed as percentage transport at 500 uM after 5 hrs by PAMPA assay; format: ADME
[3] = target: T1, Growth factor receptor-bound protein 2
[4] = Apparent permeability of compound at 500 uM after 5 hrs by PAMPA assay; format: ADME

T1 sequence (P62993 whole entry, the tested form may be a part): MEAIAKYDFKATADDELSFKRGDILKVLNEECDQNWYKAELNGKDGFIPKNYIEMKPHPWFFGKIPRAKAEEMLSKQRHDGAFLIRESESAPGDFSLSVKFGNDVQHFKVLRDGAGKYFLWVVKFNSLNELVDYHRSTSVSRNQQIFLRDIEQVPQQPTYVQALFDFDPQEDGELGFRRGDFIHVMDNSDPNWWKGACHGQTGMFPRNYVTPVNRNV

Row | Structure (SMILES) | pIC50 [1] | permeability [2] [%] | pKi [3] | Papp at 5 h, 500 µM [4] [×10⁻⁶ cm/s]
1 | NC(=O)C[C@@H]1NC(=O)C2(CCCCC2)NC(=O)C[C@@H](c2ccc(CP(=O)(O)O)cc2)/C=C/C[C@@H](Cc2cccc3ccccc23)CNC1=O | 6.46 | 0 | 7.80 | 
2 | NC(=O)C[C@@H]1NC(=O)C2(CCCCC2)NC(=O)C[C@@H](c2ccc(CC(=O)O)cc2)/C=C/C[C@@H](Cc2cccc3ccccc23)CNC1=O | 6.13 | 24.3 | 6.85 | 19.2
3 | COC(=O)Cc1ccc([C@H]2/C=C/C[C@@H](Cc3cccc4ccccc34)CNC(=O)[C@H](CC(N)=O)NC(=O)C3(CCCCC3)NC(=O)C2)cc1 | < 4.70 |  |  | 
